One assay addresses T1, JAK1-JH1 (Homo sapiens, UniProt P23458).
T1 construct: recombinant purified His or GST-tagged catalytic domain for each enzyme; made in house
Briefly: HTRF-based selectivity assay, JAK1 catalytic domain. The format is biochemical. Particulars: kinase domain (JH1), ATP 21.43 μM. On the procedure:
(§1) Example B-2: HTRF-Based Selectivity Assay
(§2) The ability of compounds to inhibit the activity of JAK1, JAK2, JAK3 and TYK2 is measured using a recombinant purified His or GST-tagged catalytic domain for each enzyme (JAK1, JAK2 and TYK2 are generated in-house; JAK3 was purchased from Carna biosciences, Cat #08-046) in an HTRF format biochemical assay. The reactions employs a commercial peptide substrate from Cisbio (Cat #62TK0PEC). The basic assay protocol is as follows: first, 2.5 μL of diluted compounds (4×) in DMSO are dispensed into a 384-well Optiplate. Next, 2.5 μL of enzyme (final concentrations for enzymes are: TYK2—700 ng/mL, JAK1—80.6 ng/mL, JAK2—2.1 ng/mL and JAK3—171.8 ng/mL) is added and incubated at RT for 5-20 min. Finally, 5 μl of mixture of 2×ATP [Final concentration 20 μM for TYK2, 21.43 μM for JAK1, 14.7 μM for JAK2 and 2.12 μM for JAK3]+2× Substrate [Final concentration 217 nM for TYK2, 454.7 nM for JAK1, 200 nM for JAK2 and 257.4 nM for JAK3] is added to 384 well Optiplate. Composition of Kinase assay buffer used in the assay is as follows: HEPES 50 mM, EGTA 1 mM, MgCl2 10 mM, DTT 2 mM, Tween-20 0.01% and water. Then the plates are shaken and then incubated at 26.5° C. for 60 min.
(In TR-FRET formats the signal depends on donor and acceptor labels being close together.)

A further assay deals with T2, TYK2-JH1 (Homo sapiens, UniProt P29597).
T2 construct: recombinant purified His or GST-tagged catalytic domain for each enzyme; made in house
T2 sequence (P29597 897-1176 limits assumed): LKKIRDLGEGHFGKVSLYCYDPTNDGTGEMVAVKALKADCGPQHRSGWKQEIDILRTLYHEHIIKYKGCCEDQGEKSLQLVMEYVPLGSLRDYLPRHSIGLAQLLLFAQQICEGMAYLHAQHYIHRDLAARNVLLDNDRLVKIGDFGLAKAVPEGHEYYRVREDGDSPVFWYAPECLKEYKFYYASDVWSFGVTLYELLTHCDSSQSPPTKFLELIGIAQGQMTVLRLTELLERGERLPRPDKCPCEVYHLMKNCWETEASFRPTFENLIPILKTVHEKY
Briefly: HTRF-based selectivity assay, TYK2 catalytic domain. Format: biochemical. Particulars: kinase domain (JH1), ATP 20 μM. On the procedure:
as §1, §2

For assay [1], the target named is T3, TYK2 Pseudokinase (JH2) (Homo sapiens, UniProt P29597). The assay can be described thus: HEK-Blue IL-23 reporter assay (SEAP) for profiling TYK2 pseudokinase (JH2) inhibition. The format is cell-based. Also noted: HEK-Blue™ IL-23 and IFNα/β cells with a stably-integrated cytokine receptor and STAT3 or STAT1; endogenous in cells; host or cells: HEK-Blue IL-23 and HEK-Blue IFNα/β cells. The note with it: HEK-Blue IL-23 cells, 10 ng/mL human recombinant IL-23, SEAP reporter; read-out: IL23 (TYK2 inhibitory activity, IC50). On the procedure: (§3) Example B-1: HEK-Blue™ IL-23 and IFNα/β Reporter Assays for Profiling TYK2 Pseudokinase (JH2) Inhibition
T3 sequence (P29597 whole entry): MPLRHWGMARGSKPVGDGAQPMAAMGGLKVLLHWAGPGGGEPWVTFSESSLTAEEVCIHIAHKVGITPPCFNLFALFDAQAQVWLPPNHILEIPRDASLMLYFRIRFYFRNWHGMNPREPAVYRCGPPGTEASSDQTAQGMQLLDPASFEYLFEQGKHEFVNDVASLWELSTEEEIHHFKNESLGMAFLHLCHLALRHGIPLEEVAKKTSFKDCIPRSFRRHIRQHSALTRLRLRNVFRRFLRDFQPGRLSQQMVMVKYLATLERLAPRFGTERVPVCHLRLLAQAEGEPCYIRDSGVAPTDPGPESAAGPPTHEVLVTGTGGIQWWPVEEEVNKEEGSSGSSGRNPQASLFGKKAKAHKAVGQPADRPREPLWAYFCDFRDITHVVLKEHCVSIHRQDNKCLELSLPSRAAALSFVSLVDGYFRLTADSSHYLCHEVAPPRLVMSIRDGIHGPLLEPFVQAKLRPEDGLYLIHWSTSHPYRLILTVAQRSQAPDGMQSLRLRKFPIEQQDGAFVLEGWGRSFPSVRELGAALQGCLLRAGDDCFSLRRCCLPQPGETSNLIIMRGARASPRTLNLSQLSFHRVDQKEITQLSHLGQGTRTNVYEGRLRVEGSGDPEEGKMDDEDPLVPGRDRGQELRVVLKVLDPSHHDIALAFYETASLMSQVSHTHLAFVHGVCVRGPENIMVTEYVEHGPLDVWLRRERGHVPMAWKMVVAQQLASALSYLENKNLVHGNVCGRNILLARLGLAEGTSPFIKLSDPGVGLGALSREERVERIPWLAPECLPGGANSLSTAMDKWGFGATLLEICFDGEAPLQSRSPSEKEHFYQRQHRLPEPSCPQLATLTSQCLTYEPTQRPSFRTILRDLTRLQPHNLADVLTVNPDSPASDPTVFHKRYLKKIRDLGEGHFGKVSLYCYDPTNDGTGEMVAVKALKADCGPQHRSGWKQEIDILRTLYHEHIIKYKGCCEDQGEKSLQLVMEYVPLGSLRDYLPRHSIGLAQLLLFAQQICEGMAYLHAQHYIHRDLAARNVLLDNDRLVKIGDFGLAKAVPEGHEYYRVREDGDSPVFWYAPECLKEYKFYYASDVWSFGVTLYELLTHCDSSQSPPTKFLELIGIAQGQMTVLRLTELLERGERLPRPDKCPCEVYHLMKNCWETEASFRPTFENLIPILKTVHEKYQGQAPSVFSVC
(§4) HEK-Blue™ IL-23 and IFNα/β cells with a stably-integrated cytokine receptor and STAT3 or STAT1 express STAT-inducible secreted embryonic alkaline phosphatase (SEAP) reporter gene upon cytokine stimulation. These cells are plated in DMEM (Gibco) containing 10% heat-inactivated FBS (Gibco) and 100 U/mL PenStrep (Gibco) at 37° C. under 5% CO2 conditions for 20-22 hours. The cells are then pretreated with serially diluted test compounds for 60 min prior to stimulation with either 10 ng/mL human recombinant IL-23 (Miltenyl Biotech) or 1 ng/mL human recombinant IFNα (InvivoGen) for 22-24 hours for IL-23 or 16-18 h for IFNα. SEAP induction is measured using the QUANTI Blue™ Solution (InvivoGen) according to the manufacturer's instructions.

In assay [2] the test system is HEK-Blue™ IL-2 reporter cells. The assay can be described thus: HEK-Blue IL-2 reporter assay (SEAP) for determining selectivity. Format: cell-based. The note with it: HEK-Blue IL-2 cells, 4 ng/mL human recombinant IL-2, SEAP reporter. The procedure: (§5) Example B-3: HEK-Blue™ IL-2 and IFNγ Reporter Assays for Determining Selectivity
(§6) HEK-Blue™ IL-2 and IFNγ reporter cells with a stably-integrated cytokine receptor and STAT5 or STAT1 express STAT-inducible secreted embryonic alkaline phosphatase (SEAP) reporter gene upon cytokine stimulation. These cells were plated in DMEM (Gibco) containing 10% heat-inactivated FBS (Gibco) and 100 U/mL PenStrep (Gibco) at 37° C. under 5% CO2 conditions for 20-22 hours. The cells were then pre-treated with serially diluted test compounds for 60 min prior to stimulation with either 4 ng/mL human recombinant IL-2 (Miltenyl Biotech) or 50 ng/mL human recombinant IFNγ (InvivoGen) for 24 hours. SEAP induction was measured using the QUANTI-Blue™ Solution (InvivoGen) according to the manufacturer's instructions.
In general terms: A reporter such as luciferase makes a cellular process visible.

Assay [3] relates to HEK-Blue™ IFNγ reporter cells. Briefly: HEK-Blue IFNγ reporter assay (SEAP) for determining selectivity. The format is cell-based. The note with it: 50 ng/mL human recombinant IFNγ, read-out: IFN-γ (SEAP selectivity, IC50). The procedure: as §5, §6
The target of assay [4] is T3, TYK2 Pseudokinase (JH2). Briefly: HEK-Blue IFNα/β reporter assay (SEAP) for profiling TYK2 pseudokinase (JH2) inhibition. The format is cell-based. Particulars: HEK-Blue IFNα/β cells, 1 ng/mL human recombinant IFNα, read-out: IFNα (TYK2 inhibitory activity, IC50). On the procedure:
as §3, §4

The next assay deals with T4, JAK3-JH1 (Homo sapiens, UniProt P52333).
T4 construct: recombinant purified His or GST-tagged catalytic domain for each enzyme; purchased Carna biosciences 08-046
T4 sequence (P52333 822-1111 limits assumed): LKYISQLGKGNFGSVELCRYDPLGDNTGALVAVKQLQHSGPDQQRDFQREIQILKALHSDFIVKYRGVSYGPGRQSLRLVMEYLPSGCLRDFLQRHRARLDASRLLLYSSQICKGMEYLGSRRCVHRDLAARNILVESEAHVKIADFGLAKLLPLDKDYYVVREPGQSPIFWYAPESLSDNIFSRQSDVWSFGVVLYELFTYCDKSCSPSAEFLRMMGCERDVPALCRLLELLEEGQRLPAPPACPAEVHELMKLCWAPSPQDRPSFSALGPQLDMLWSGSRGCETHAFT
Briefly: HTRF-based selectivity assay, JAK3 catalytic domain. The format is biochemical. Particulars: kinase domain (JH1), ATP 2.12 μM. The procedure: as §1, §2

The target in a further assay is T5, JAK2-JH1 (Homo sapiens, UniProt O60674).
T5 construct: recombinant purified His or GST-tagged catalytic domain for each enzyme; made in house
T5 sequence (O60674 849-1124 limits assumed): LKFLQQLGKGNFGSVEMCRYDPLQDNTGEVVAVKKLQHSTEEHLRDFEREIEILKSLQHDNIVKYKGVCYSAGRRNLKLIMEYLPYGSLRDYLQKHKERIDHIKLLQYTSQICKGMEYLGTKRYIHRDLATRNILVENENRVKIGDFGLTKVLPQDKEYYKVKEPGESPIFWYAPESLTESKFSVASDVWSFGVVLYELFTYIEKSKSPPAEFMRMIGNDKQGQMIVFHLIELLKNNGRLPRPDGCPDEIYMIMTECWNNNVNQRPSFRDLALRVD
The assay can be described thus: HTRF-based selectivity assay, JAK2 catalytic domain. Format: biochemical. Particulars: kinase domain (JH1), ATP 14.7 μM. On the procedure: as §1, §2

The structures appear in SMILES notation. pIC50: −log10 of the molar value.

What is called pIC50 is the IC50 on a negative log10 scale, so that one unit is a factor of ten.

T1 sequence (P23458 875-1153 limits assumed): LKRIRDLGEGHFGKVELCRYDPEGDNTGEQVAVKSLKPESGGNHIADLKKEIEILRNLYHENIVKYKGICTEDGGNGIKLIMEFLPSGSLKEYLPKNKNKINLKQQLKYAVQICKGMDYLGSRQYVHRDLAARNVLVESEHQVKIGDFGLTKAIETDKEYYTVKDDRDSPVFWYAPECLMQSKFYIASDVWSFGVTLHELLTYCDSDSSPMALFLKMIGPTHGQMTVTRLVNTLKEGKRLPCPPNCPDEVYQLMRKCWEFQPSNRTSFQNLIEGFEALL

Take `CNC(=O)c1nnc(Nc2ccc(F)cn2)cc1Nc1cccc2c1OCc1conc1-2` [Compound 2, 4-((4H-chromeno[4,3-c]isoxazol-6-yl)amino)-6-((5-fluoropyridin-2-yl)amino)-N-methylpyridazine-3-carboxamide]: the pIC50 on JAK1-JH1 was under 6.00; on TYK2-JH1 it was under 6.00; on TYK2 Pseudokinase (JH2) [1], over 7.52; in assay [2], under 6.00; in assay [3], 6.00 to 6.52; at TYK2 Pseudokinase (JH2) [4] it was under 6.00. Moreover, the negative-log IC50 (pIC50) against JAK3-JH1 and on JAK2-JH1 was under 6.00 in each case.
Regarding `[2H]C([2H])([2H])NC(=O)c1cnc(NC(=O)C2CC2)cc1Nc1cccc2c1N(C)Cc1nn(C)c(=O)n1-2` [Compound 8, 6-(cyclopropanecarboxamido)-4-((2,5-dimethyl-1-oxo-1,2,4,5-tetrahydro-[1,2,4]triazolo[4,3-a]quinoxalin-6-yl)amino)-N-(methyl-d3)nicotinamide], the negative logarithm of the IC50 (pIC50) at JAK1-JH1 is under 6.00; on TYK2-JH1, under 6.00; on TYK2 Pseudokinase (JH2) [1], over 7.52; in assay [2], under 6.00; in assay [3], 6.00 to 6.52; at TYK2 Pseudokinase (JH2) [4] it was over 7.52. The pIC50 on JAK3-JH1 and at JAK2-JH1 was under 6.00 each time.
With `[2H]C([2H])([2H])NC(=O)c1cnc(Nc2ccc(F)cn2)cc1Nc1cccc2c1N(C)Cc1nn(C)c(=O)n1-2` [Compound 9, 4-((2,5-dimethyl-1-oxo-1,2,4,5-tetrahydro-[1,2,4]triazolo[4,3-a]quinoxalin-6-yl)amino)-6-((5-fluoropyridin-2-yl)amino)-N-(methyl-d3)nicotinamide], the negative logarithm of the IC50 (pIC50) is under 6.00 on JAK1-JH1; under 6.00 against TYK2-JH1; over 7.52 on TYK2 Pseudokinase (JH2) [1]; under 6.00 in assay [2]; under 6.00 in assay [3]; over 7.52 at TYK2 Pseudokinase (JH2) [4]. Moreover, the pIC50 against JAK3-JH1 and against JAK2-JH1 was under 6.00 throughout.
Turning to `[2H]C([2H])([2H])NC(=O)c1cnc(Nc2ccc(F)cn2)cc1Nc1cccc2c1N(C)Cc1nnnn1-2` [Compound 10, 6-((5-fluoropyridin-2-yl)amino)-N-(methyl-d3)-4-((5-methyl-4,5-dihydrotetrazolo[1,5-a]quinoxalin-6-yl)amino)nicotinamide], the negative-log IC50 (pIC50) at JAK1-JH1 is under 6.00; at TYK2-JH1 it was under 6.00; at TYK2 Pseudokinase (JH2) [1], over 7.52; in assay [2], under 6.00; in assay [3], under 6.00; at TYK2 Pseudokinase (JH2) [4], 6.52 to 7.52. Moreover, the negative-log IC50 (pIC50) against JAK3-JH1 and on JAK2-JH1 was under 6.00 in each case.
On to `[2H]C([2H])([2H])NC(=O)c1cnc(NC(=O)C2CC2)cc1Nc1cccc2c1N(C)Cc1nnnn1-2` [Compound 11, 6-(cyclopropanecarboxamido)-N-(methyl-d3)-4-((5-methyl-4,5-dihydrotetrazolo[1,5-a]quinoxalin-6-yl)amino)nicotinamide], for which the negative logarithm of the IC50 (pIC50) against JAK1-JH1 was under 6.00; at TYK2-JH1 it was under 6.00; at TYK2 Pseudokinase (JH2) [1], over 7.52; in assay [2], under 6.00; in assay [3], under 6.00; on TYK2 Pseudokinase (JH2) [4] it was 6.52 to 7.52. Besides, the negative logarithm of the IC50 (pIC50) on JAK3-JH1 and against JAK2-JH1 was under 6.00 throughout.
On to `[2H]C([2H])([2H])NC(=O)c1cnc(Nc2cc(C)nc(C)n2)cc1Nc1cccc2c1N(C)Cc1nn(C)c(=O)n1-2` [Compound 12, 4-((2,5-dimethyl-1-oxo-1,2,4,5-tetrahydro-[1,2,4]triazolo[4,3-a]quinoxalin-6-yl)amino)-6-((2,6-dimethylpyrimidin-4-yl)amino)-N-(methyl-d3)nicotinamide], for which the pIC50 at JAK1-JH1 is under 6.00; at TYK2-JH1, under 6.00; on TYK2 Pseudokinase (JH2) [1] it was over 7.52; in assay [2], under 6.00; in assay [3] it was under 6.00; at TYK2 Pseudokinase (JH2) [4] it was over 7.52. Also, the negative-log IC50 (pIC50) at JAK3-JH1 and against JAK2-JH1 was under 6.00 throughout.
Take `CNC(=O)c1cnc(Nc2ccc(F)cn2)cc1Nc1cccc2c1OCCn1nnnc1-2` [Compound 15, 4-((5,6-dihydrobenzo[f]tetrazolo[1,5-d][1,4]oxazepin-8-yl)amino)-6-((5-fluoropyridin-2-yl)amino)-N-methylnicotinamide]: the negative-log IC50 (pIC50) at JAK1-JH1 is under 6.00; against TYK2-JH1, under 6.00; at TYK2 Pseudokinase (JH2) [1], 6.52 to 7.52; at TYK2 Pseudokinase (JH2) [4], 6.00 to 6.52; at JAK3-JH1, under 6.00; against JAK2-JH1, under 6.00.
On to `[2H]C([2H])([2H])NC(=O)c1nnc(NC(=O)C2CC2)cc1Nc1cc(F)cc2c1N(C)Cc1nn(C)c(=O)n1-2` [Compound 18, 6-(cyclopropanecarboxamido)-4-((8-fluoro-2,5-dimethyl-1-oxo-1,2,4,5-tetrahydro-[1,2,4]triazolo[4,3-a]quinoxalin-6-yl)amino)-N-(methyl-d3)pyridazine-3-carboxamide], for which the negative-log IC50 (pIC50) is under 6.00 on JAK1-JH1; under 6.00 against TYK2-JH1; over 7.52 at TYK2 Pseudokinase (JH2) [1]; under 6.00 in assay [2]; 6.52 to 7.52 on TYK2 Pseudokinase (JH2) [4]; under 6.00 against JAK3-JH1. The molecule also showed a pIC50 on JAK2-JH1 of under 6.00.
Consider `[2H]C([2H])([2H])NC(=O)c1nnc(NC(=O)C2CC2)cc1Nc1nccc2c1N(C)Cc1nn(C)c(=O)n1-2` [Compound 20, 6-(cyclopropanecarboxamido)-4-((2,5-dimethyl-1-oxo-1,2,4,5-tetrahydropyrido[3,4-e][1,2,4]triazolo[4,3-a]pyrazin-6-yl)amino)-N-(methyl-d3)pyridazine-3-carboxamide], for which the negative-log IC50 (pIC50) against JAK1-JH1 was under 6.00; at TYK2-JH1 it was under 6.00; at TYK2 Pseudokinase (JH2) [1], over 7.52; in assay [2], under 6.00; at TYK2 Pseudokinase (JH2) [4] it was over 7.52; against JAK3-JH1 it was under 6.00. Further, the negative logarithm of the IC50 (pIC50) against JAK2-JH1 is under 6.00.

The record behind these values is patent publication US20240189309A1, “TYK2 INHIBITORS AND USES THEREOF” (Sudo Biosciences Limited, priority 2021, published 2024).
